Counter-ions that a name gives are not always drawn.

In turn, `Cn1ncnc1COc1nn2c(-c3ccccc3F)nncc2c1-c1cccc(N)c1` (as salt: hemisulfate) [Example 94, 3-(3-Aminophenyl)-7-(2-fluorophenyl)-2-(2-methyl-2H-[1,2,4]triazol-3-ylmethoxy)pyrazolo[1,5-d][1,2,4]triazine] gave a melting point of 196 to 200 °C.

With `Cn1ncnc1COc1nn2c(-c3ccccc3F)nncc2c1-c1ccccc1` [Example 1, 7-(2-Fluorophenyl)-2-(2-methyl-2H-[1,2,4]triazol-3-ylmethoxy)-3-phenylpyrazolo[1,5-d][1,2,4]triazine], the melting point came to 176 °C. On to `Cn1ncnc1COc1nn2c(-c3ccccc3F)nncc2c1-c1ccccc1F` [Example 2, 3-(2-Fluorophenyl)-7-(2-fluorophenyl)-2-(2-methyl-2H-[1,2,4]triazol-3-ylmethoxy)pyrazolo[1,5-d][1,2,4]triazine], for which the melting point was determined as 169 °C.

Consider `Cn1ncnc1COc1nn2c(-c3ccccc3F)nncc2c1-c1cccc(F)c1` [Example 3, 3-(3-Fluorophenyl)-7-(2-fluorophenyl)-2-(2-methyl-2H-[1,2,4]triazol-3-ylmethoxy)pyrazolo[1,5-d][1,2,4]triazine], for which the melting point was 176 °C. The value for `Cn1ncnc1COc1nn2c(-c3ccccc3F)nncc2c1-c1ccc(F)cc1` [Example 4, 3-(4-Fluorophenyl)-7-(2-fluorophenyl)-2-(2-methyl-2H-[1,2,4]triazol-3-ylmethoxy)pyrazolo[1,5-d][1,2,4]triazine] was 192 °C; that for `CCn1ncnc1COc1nn2c(-c3ccccc3F)nncc2c1-c1ccccc1` [Example 5, 2-(2-Ethyl-2H-[1,2,4]triazol-3-ylmethoxy)-7-(2-fluorophenyl)-3-phenylpyrazolo[1,5-d][1,2,4]triazine] was 171 to 173 °C.

Turning to `Cn1ncnc1COc1nn2c(-c3cccc(F)c3)nncc2c1-c1ccccc1` [Example 7, 7-(3-Fluorophenyl)-2-(2-methyl-2H-[1,2,4]triazol-3-ylmethoxy)-3-phenylpyrazolo[1,5-d][1,2,4]triazine], the melting point was 198 °C. `Fc1ccccc1-c1nncc2c(-c3ccccc3)c(OCc3ccccn3)nn12` [Example 8, 7-(2-Fluorophenyl)-3-phenyl-2-(pyridin-2-ylmethoxy)pyrazolo[1,5-d][1,2,4]triazine] had a melting point of 182 to 183 °C. Compound `Cn1ncnc1COc1nn2c(-c3c(F)cccc3F)nncc2c1-c1ccccc1` [Example 10, 7-(2,6-Difluorophenyl)-2-(2-methyl-2H-[1,2,4]triazol-3-ylmethoxy)-3-phenylpyrazolo[1,5-d][1,2,4]triazine] registered a melting point of 179 °C.

Compound `Cn1ncnc1COc1nn2c(-c3cccs3)nncc2c1-c1ccccc1` [Example 11, 2-(2-Methyl-2H-[1,2,4]triazol-3-ylmethoxy)-3-phenyl-7-(thien-2-yl) pyrazolo[1,5-d][1,2,4]triazine] yielded a melting point of 209 °C. In the case of `Cn1ncnc1COc1nn2c(-c3ccccc3)nncc2c1-c1ccccc1` [Example 12, 3,7-Diphenyl-2-(2-methyl-2H-[1,2,4]triazol-3-ylmethoxy)pyrazolo[1,5-d][1,2,4]triazine], the melting point turned out to be 185 °C. Regarding `Cn1ncnc1COc1nn2c(-c3cc(F)ccc3F)nncc2c1-c1ccccc1` [Example 13, 7-(2,5-Difluorophenyl)-2-(2-methyl-2H-[1,2,4]triazol-3-ylmethoxy)-3-phenylpyrazolo[1,5-d][1,2,4]triazine], the melting point was 199 °C. Regarding `Cn1ncnc1COc1nn2c(-c3ccccc3F)nncc2c1-c1cc(F)ccc1F` [Example 14, 3-(2,5-Difluorophenyl)-7-(2-fluorophenyl)-2-(2-methyl-2H-[1,2,4]triazol-3-ylmethoxy)Pyrazolo[1,5-d][1,2,4]triazine], the melting point lay in the range of 164 to 165 °C. Consider `Cn1ncnc1COc1nn2c(-c3ccccc3F)nncc2c1-c1c(F)cccc1F` [Example 15, 3-(2,6-Difluorophenyl)-7-(2-fluorophenyl)-2-(2-methyl-2H-[1,2,4]triazol-3-ylmethoxy)pyrazolo[1,5-d][1,2,4]triazine], for which the melting point came out at 196 °C. With `Cn1ncnc1COc1nn2c(-c3ccccc3F)nncc2c1-c1cccc(F)c1F` [Example 16, 3-(2,3-Difluorophenyl)-7-(2-fluorophenyl)2-(2-methyl-2H-[1,2,4]triazol-3-ylmethoxy)pyrazolo[1,5-d][1,2,4]triazine], the melting point came to 176 °C. With `Cn1ncnc1COc1nn2c(-c3ccccc3F)nncc2c1Br` [Example 17, 3-Bromo-7-(2-fluorophenyl)-2-(2-methyl-2H-[1,2,4]triazol-3-ylmethoxy)pyrazolo[1,5-d][1,2,4]triazine], the melting point lay in the range of 215 to 219 °C. Then `Cn1ncnc1COc1nn2c(-c3ccccc3F)nncc2c1-c1cccc(C(F)(F)F)c1` [Example 18, 7-(2-Fluorophenyl)-2-(2-methyl-2H-[1,2,4]triazol-3-ylmethoxy)-3-[3-(trifluoromethyl)phenyl]pyrazolo[1,5-d][1,2,4]triazine], with 152 to 155 °C; and `Cn1ncnc1COc1nn2c(-c3ccccc3F)nncc2c1-c1cc(F)cc(F)c1` [Example 20, 3-(3,5-Difluorophenyl)-7-(2-fluorophenyl)-2-(2-methyl-2H-[1,2,4]triazol-3-ylmethoxy)pyrazolo[1,5-d][1,2,4]triazine], with 171 to 173 °C; and `Cn1ncnc1COc1nn2c(-c3cc(F)ccc3F)nncc2c1C(C)(C)C` [Example 21, 7-(2,5-Difluorophenyl)-3-(1,1-dimethylethyl)-2-(2-methyl-2H-[1,2,4]triazol-3-ylmethoxy)pyrazolo[1,5-d][1,2,4]triazine], with 144 °C. The compound `CCn1ncnc1COc1nn2c(-c3cc(F)ccc3F)nncc2c1C(C)(C)C` [Example 22, 7-(2,5-Difluorophenyl)-3-(1,1-dimethylethyl)-2-(2-ethyl-2H-[1,2,4]triazol-3-ylmethoxy)pyrazolo[1,5-d][1,2,4]triazine] had a melting point of 108 °C. The compound `Cn1ncnc1COc1nn2c(-c3ccccc3F)nncc2c1C(C)(C)C` [Example 24, 3-(1,1-Dimethylethyl)-7-(2-fluorophenyl)-2-(2-methyl-2H-[1,2,4]triazol-3-ylmethoxy)pyrazolo[1,5-d][1,2,4]triazine] gave a melting point of 128 °C.

With `CCn1ncnc1COc1nn2c(-c3ccccc3F)nncc2c1C(C)(C)C` [Example 25, 3-(1,1-Dimethylethyl)-2-(2-ethyl-2H-[1,2,4]triazol-3-ylmethoxy)-7-(2-fluorophenyl)pyrazolo[1,5-d][1,2,4]triazine], the melting point was found to be 105 °C. For `CCCn1ncnc1COc1nn2c(-c3ccccc3F)nncc2c1C(C)(C)C` [Example 26, 3-(1,1-Dimethylethyl)-7-(2-fluorophenyl)-2-(2-propyl-2H-[1,2,4]triazol-3-ylmethoxy)pyrazolo[1,5-d][1,2,4]triazine], the melting point was found to be 93 °C. `CCn1ncnc1COc1nn2c(-c3c(F)ccc(F)c3F)nncc2c1C(C)(C)C` [Example 29, 3-(1,1-Dimethylethyl)-2-(2-ethyl-2H-[1,2,4]triazol-3-ylmethoxy)-7-(2,3,6-trifluorophenyl)pyrazolo[1,5-d][1,2,4]triazine] yielded a melting point of 42 °C. The value for `CC(C)n1ncnc1COc1nn2c(-c3cc(F)ccc3F)nncc2c1C(C)(C)C` [Example 30, 7-(2,5-Difluorophenyl)-3-(1,1-dimethylethyl)-2-(2-isopropyl-2H-[1,2,4]triazol-3-ylmethoxy)pyrazolo[1,5-d][1,2,4]triazine] was 163 °C; that for `Cn1ncnc1COc1nn2c(-c3cnccn3)nncc2c1-c1ccccc1F` [Example 31, 3-(2-Fluorophenyl)-2-(2-methyl-2H-[1,2,4]triazol-3-ylmethoxy)-7-(pyrazin-2-yl)pyrazolo[1,5-d][1,2,4]triazine] was 179 to 180 °C. The compound `CCn1ncnc1COc1nn2c(-c3cc(F)ccc3F)nncc2c1C(C)(C)CC` [Example 33, 7-(2,5-Difluorophenyl)-3-(1,1-dimethylpropyl)-2-(2-ethyl-2H-[1,2,4]triazol-3-ylmethoxy)pyrazolo[1,5-d][1,2,4]triazine] displayed a melting point of 85 to 86 °C. The value for `CCC(C)(C)c1c(OCc2ncnn2C)nn2c(-c3ccccc3F)nncc12` [Example 34, 3-(1,1-Dimethylpropyl)-7-(2-fluorophenyl)-2-(2-methyl-2H-[1,2,4]triazol-3-ylmethoxy)pyrazolo[1,5-d][1,2,4]triazine] was 89 to 91 °C; that for `Cn1ncnc1COc1nn2c(-c3ccccc3F)nncc2c1-c1cccnc1` [Example 35, 7-(2-Fluorophenyl)-2-(2-methyl-2H-[1,2,4]triazol-3-ylmethoxy)-3-(pyridin-3-yl)pyrazolo[1,5-d][1,2,4]triazine] was 181 to 183 °C; that for `Cn1ncnc1COc1nn2c(-c3ccco3)nncc2c1-c1ccccc1F` [Example 36, 3-(2-Fluorophenyl)-7-(furan-2-yl)-2-(2-methyl-2H-[1,2,4]triazol-3-ylmethoxy)pyrazolo[1,5-d][1,2,4]triazine] was 204 to 206 °C.

The compound `Cn1ncnc1COc1nn2c(-c3ccc(F)cc3)nncc2c1C(C)(C)C` [Example 37, 3-(1,1-Dimethylethyl)-7-(4-fluorophenyl)-2-(2-methyl-2H-[1,2,4]triazol-3-ylmethoxy)pyrazolo[1,5-d][1,2,4]triazine] came in with a melting point of 197 °C. The value for `CCn1ncnc1COc1nn2c(-c3ccc(F)cc3)nncc2c1C(C)(C)C` [Example 38, 3-(1,1-Dimethylethyl)-2-(2-ethyl-2H-[1,2,4]triazol-3-ylmethoxy)-7-(4-fluorophenyl)pyrazolo[1,5-d][1,2,4]triazine] was 190 °C; that for `CCCn1ncnc1COc1nn2c(-c3ccc(F)cc3)nncc2c1C(C)(C)C` [Example 39, 3-(1,1-Dimethylethyl)-7-(4-fluorophenyl)-2-(2-propyl-2H-[1,2,4]triazol-3-ylmethoxy)pyrazolo[1,5-d][1,2,4]triazine] was 154 °C; that for `CCn1ncnc1COc1nn2c(-c3ccccc3F)nncc2c1C(C)(C)CC` [Example 40, 3-(1,1-Dimethylpropyl)-2-(2-ethyl-2H-[1,2,4]triazol-3-ylmethoxy)-7-(2-fluorophenyl)pyrazolo[1,5-d][1,2,4]triazine] was 89 to 92 °C.

These data come from patent US6476030B1, “Pyrazolo-triazine derivatives as ligands for GABA receptors” (Merck Sharp & Dohme Ltd., priority 1998, dated 2002).
